Measurements published in the NIST ThermoML archive (doi:10.1016/j.fluid.2014.09.014).
Numbers after ± are expanded uncertainties.

Assay: refractive index (other wavelength) (dimensionless); xn = mol fraction of the nth substance listed
Details: 101 kPa, Liquid, Standard Abbe refractometry

CC(C)OC(C)C [diisopropyl ether] + CO
Details | refractive index
308.15 K, Wavelength=632.8 nm, x2 = 0.9527 | 1.32818 ± 0.00032
308.15 K, Wavelength=632.8 nm, x2 = 0.9773 | 1.32479 ± 0.00031
308.15 K, Wavelength=632.8 nm, x2 = 0.989 | 1.32358 ± 0.00032
308.15 K, Wavelength=632.8 nm, x2 = 0.9964 | 1.32256 ± 0.00032
308.15 K, Wavelength=644 nm, x2 = 0 | 1.35823 ± 0.00043
308.15 K, Wavelength=644 nm, x2 = 0.0423 | 1.35813 ± 0.00043
308.15 K, Wavelength=644 nm, x2 = 0.0424 | 1.35825 ± 0.00043
308.15 K, Wavelength=644 nm, x2 = 0.082 | 1.35812 ± 0.00042
308.15 K, Wavelength=644 nm, x2 = 0.0822 | 1.35825 ± 0.00042
308.15 K, Wavelength=644 nm, x2 = 0.1171 | 1.35814 ± 0.00041
308.15 K, Wavelength=644 nm, x2 = 0.1271 | 1.35813 ± 0.00041
308.15 K, Wavelength=644 nm, x2 = 0.1827 | 1.35788 ± 0.0004
308.15 K, Wavelength=644 nm, x2 = 0.2162 | 1.35771 ± 0.0004
308.15 K, Wavelength=644 nm, x2 = 0.251 | 1.35735 ± 0.00039
308.15 K, Wavelength=644 nm, x2 = 0.3298 | 1.35728 ± 0.00038
308.15 K, Wavelength=644 nm, x2 = 0.3577 | 1.35703 ± 0.00038
308.15 K, Wavelength=644 nm, x2 = 0.4497 | 1.35516 ± 0.00037
308.15 K, Wavelength=644 nm, x2 = 0.4525 | 1.35557 ± 0.00037
308.15 K, Wavelength=644 nm, x2 = 0.522 | 1.35341 ± 0.00035
308.15 K, Wavelength=644 nm, x2 = 0.5543 | 1.35268 ± 0.00035
308.15 K, Wavelength=644 nm, x2 = 0.609 | 1.35028 ± 0.00034
308.15 K, Wavelength=644 nm, x2 = 0.6529 | 1.34881 ± 0.00034
308.15 K, Wavelength=644 nm, x2 = 0.7504 | 1.345 ± 0.00033
308.15 K, Wavelength=644 nm, x2 = 0.804 | 1.34088 ± 0.00033
308.15 K, Wavelength=644 nm, x2 = 0.807 | 1.34066 ± 0.00033
308.15 K, Wavelength=644 nm, x2 = 0.8727 | 1.33698 ± 0.00032
308.15 K, Wavelength=644 nm, x2 = 0.9233 | 1.32908 ± 0.00033
308.15 K, Wavelength=644 nm, x2 = 0.9253 | 1.331 ± 0.00033
308.15 K, Wavelength=644 nm, x2 = 0.9527 | 1.32794 ± 0.00032
308.15 K, Wavelength=644 nm, x2 = 0.9773 | 1.32455 ± 0.00032
308.15 K, Wavelength=644 nm, x2 = 0.989 | 1.32334 ± 0.00032
308.15 K, Wavelength=644 nm, x2 = 0.9964 | 1.32232 ± 0.00032
308.15 K, Wavelength=706.5 nm, x2 = 0 | 1.35683 ± 0.00043
308.15 K, Wavelength=706.5 nm, x2 = 0.0423 | 1.35672 ± 0.00043
308.15 K, Wavelength=706.5 nm, x2 = 0.0424 | 1.35677 ± 0.00043
308.15 K, Wavelength=706.5 nm, x2 = 0.082 | 1.35671 ± 0.00042
308.15 K, Wavelength=706.5 nm, x2 = 0.0822 | 1.35685 ± 0.00042
308.15 K, Wavelength=706.5 nm, x2 = 0.1171 | 1.35672 ± 0.00041
308.15 K, Wavelength=706.5 nm, x2 = 0.1271 | 1.35672 ± 0.00041
308.15 K, Wavelength=706.5 nm, x2 = 0.1827 | 1.35648 ± 0.0004
308.15 K, Wavelength=706.5 nm, x2 = 0.2162 | 1.35631 ± 0.0004
308.15 K, Wavelength=706.5 nm, x2 = 0.251 | 1.35595 ± 0.00039
308.15 K, Wavelength=706.5 nm, x2 = 0.3298 | 1.35588 ± 0.00038
308.15 K, Wavelength=706.5 nm, x2 = 0.3577 | 1.35565 ± 0.00038
308.15 K, Wavelength=706.5 nm, x2 = 0.4497 | 1.35375 ± 0.00037
308.15 K, Wavelength=706.5 nm, x2 = 0.4525 | 1.35416 ± 0.00037
308.15 K, Wavelength=706.5 nm, x2 = 0.522 | 1.35202 ± 0.00035
308.15 K, Wavelength=706.5 nm, x2 = 0.5543 | 1.35129 ± 0.00035
308.15 K, Wavelength=706.5 nm, x2 = 0.609 | 1.34894 ± 0.00034
308.15 K, Wavelength=706.5 nm, x2 = 0.6529 | 1.34745 ± 0.00034
308.15 K, Wavelength=706.5 nm, x2 = 0.7504 | 1.34368 ± 0.00033
308.15 K, Wavelength=706.5 nm, x2 = 0.804 | 1.33959 ± 0.00033
308.15 K, Wavelength=706.5 nm, x2 = 0.807 | 1.33939 ± 0.00033
308.15 K, Wavelength=706.5 nm, x2 = 0.8727 | 1.33572 ± 0.00032
308.15 K, Wavelength=706.5 nm, x2 = 0.9233 | 1.32789 ± 0.00033
308.15 K, Wavelength=706.5 nm, x2 = 0.9253 | 1.32976 ± 0.00033
308.15 K, Wavelength=706.5 nm, x2 = 0.9527 | 1.32672 ± 0.00032
308.15 K, Wavelength=706.5 nm, x2 = 0.9773 | 1.32336 ± 0.00032
308.15 K, Wavelength=706.5 nm, x2 = 0.989 | 1.32216 ± 0.00031
308.15 K, Wavelength=706.5 nm, x2 = 0.9964 | 1.32114 ± 0.00031
313.15 K, Wavelength=40.47 nm, x2 = 0 | 1.3674 ± 0.00044
313.15 K, Wavelength=40.47 nm, x2 = 0.0423 | 1.36734 ± 0.00043
313.15 K, Wavelength=40.47 nm, x2 = 0.0424 | 1.3674 ± 0.00043
313.15 K, Wavelength=40.47 nm, x2 = 0.082 | 1.36731 ± 0.00042
313.15 K, Wavelength=40.47 nm, x2 = 0.0822 | 1.3675 ± 0.00042
313.15 K, Wavelength=40.47 nm, x2 = 0.1171 | 1.36734 ± 0.00041
313.15 K, Wavelength=40.47 nm, x2 = 0.1271 | 1.36736 ± 0.00041
313.15 K, Wavelength=40.47 nm, x2 = 0.1827 | 1.36712 ± 0.0004
313.15 K, Wavelength=40.47 nm, x2 = 0.2162 | 1.36696 ± 0.0004
313.15 K, Wavelength=40.47 nm, x2 = 0.251 | 1.36648 ± 0.00039
313.15 K, Wavelength=40.47 nm, x2 = 0.3298 | 1.36657 ± 0.00038
313.15 K, Wavelength=40.47 nm, x2 = 0.3577 | 1.36568 ± 0.00038
313.15 K, Wavelength=40.47 nm, x2 = 0.4497 | 1.36434 ± 0.00037
313.15 K, Wavelength=40.47 nm, x2 = 0.4525 | 1.36476 ± 0.00037
313.15 K, Wavelength=40.47 nm, x2 = 0.522 | 1.36255 ± 0.00035
313.15 K, Wavelength=40.47 nm, x2 = 0.5543 | 1.36165 ± 0.00035
313.15 K, Wavelength=40.47 nm, x2 = 0.609 | 1.35929 ± 0.00034
313.15 K, Wavelength=40.47 nm, x2 = 0.6529 | 1.35769 ± 0.00034
313.15 K, Wavelength=40.47 nm, x2 = 0.7504 | 1.35369 ± 0.00033
313.15 K, Wavelength=40.47 nm, x2 = 0.804 | 1.34918 ± 0.00033
313.15 K, Wavelength=40.47 nm, x2 = 0.807 | 1.34928 ± 0.00033
313.15 K, Wavelength=40.47 nm, x2 = 0.8727 | 1.3456 ± 0.00032
313.15 K, Wavelength=40.47 nm, x2 = 0.9233 | 1.33747 ± 0.00033
313.15 K, Wavelength=40.47 nm, x2 = 0.9253 | 1.33918 ± 0.00033
313.15 K, Wavelength=40.47 nm, x2 = 0.9527 | 1.33616 ± 0.00032
313.15 K, Wavelength=40.47 nm, x2 = 0.9773 | 1.33271 ± 0.00032
313.15 K, Wavelength=40.47 nm, x2 = 0.989 | 1.33146 ± 0.00032
313.15 K, Wavelength=40.47 nm, x2 = 0.9964 | 1.33048 ± 0.00032
313.15 K, Wavelength=435.8 nm, x2 = 0 | 1.36447 ± 0.00044
313.15 K, Wavelength=435.8 nm, x2 = 0.0423 | 1.36444 ± 0.00042
313.15 K, Wavelength=435.8 nm, x2 = 0.0424 | 1.36447 ± 0.00043
313.15 K, Wavelength=435.8 nm, x2 = 0.082 | 1.3644 ± 0.00042
313.15 K, Wavelength=435.8 nm, x2 = 0.0822 | 1.36459 ± 0.00042
